Measurements: patent US20180228818A1, “PHARMACEUTICAL COMPOSITION COMPRISING ASPRIN, METFORMIN, AND SEROTONIN WITH NON-IONIC SURFACTANT” (ALS MOUNTAIN LLC, priority 2014, published 2018)

Experiment: Solubilization test of Poloxamer 188/407 to Aspirin in ethanol
Format: physicochemical
Settings: for Amount Dissolved: 10 ml, room temperature (30° C.)
Protocol: (1) 0%,10%, 20%, 30%, 40% (m/v) of Poloxamer 188/407 anhydrous ethanol solution were prepared respectively,10 ml of each solution was added into five sealed centrifuge tubes respectively (each centrifuge tube was numbered accordingly).
(2) Each centrifuge tube was added with adequate amount of Aspirin based on the pre-test data (please refer to Table 1: 0 h data), and shaken to dissolution at room temperature (30° C.).
0.1 g of Aspirin would be added into the tube when complete dissolution was observed, then sealed and continued shaking. In cases which the drug was not dissolved, the previous amount of drug dissolved would be recorded as the maximum amount needed for dissolution.
(4) Dissolution observation was continued until some amount of drug compound could not be dissolved.
(5) The observation of each tube was recorded in Table 1

Solubilization Rate (Poloxamer 188 0%): 0%
Amount Dissolved (Poloxamer 188 0% (m/v) in anhydrous ethanol): 2.50 g
Solubilization Rate (Poloxamer 188 10%): 12%
Amount Dissolved (Poloxamer 188 10% (m/v) in anhydrous ethanol): 2.80 g
Solubilization Rate (Poloxamer 188 20%): 20%
Amount Dissolved (Poloxamer 188 20% (m/v) in anhydrous ethanol): 3.00 g
Solubilization Rate (Poloxamer 188 30%): 24%
Amount Dissolved (Poloxamer 188 30% (m/v) in anhydrous ethanol): 3.10 g
Solubilization Rate (Poloxamer 188 40%): 28%
Amount Dissolved (Poloxamer 188 40% (m/v) in anhydrous ethanol): 3.20 g
solubility of Aspirin (Poloxamer 188 and 407 anhydrous ethanol): increases with Poloxamer concentration
Solubilization Rate (Poloxamer 407 0%): 0%
Amount Dissolved (Poloxamer 407 0% (m/v) in anhydrous ethanol): 2.50 g
Solubilization Rate (Poloxamer 407 10%): 12%
Amount Dissolved (Poloxamer 407 10% (m/v) in anhydrous ethanol): 2.80 g
Solubilization Rate (Poloxamer 407 20%): 20%
Amount Dissolved (Poloxamer 407 20% (m/v) in anhydrous ethanol): 3.00 g
Solubilization Rate (Poloxamer 407 30%): 24%
Amount Dissolved (Poloxamer 407 30% (m/v) in anhydrous ethanol): 3.10 g
Solubilization Rate (Poloxamer 407 40%): 28%
Amount Dissolved (Poloxamer 407 40% (m/v) in anhydrous ethanol): 3.20 g
SMILES: CC(=O)Oc1ccccc1C(=O)O [Aspirin, acetylsalicylic acid]
